What was measured:
A549 cells [1] = experiment: Motility, wound healing assay, A549 cells; format: cell-based; conditions: 1 μM hANP, TGF-β1 1 ng/mL, 24 hours
Procedure: (§1) Using a 6-well dish, the A549 cells were cultured at 4×10^5 cells/well, and the culture medium was replaced with DMEM culture medium free from FBS the next day. After 24 hours of culture, the cells were divided into 3 groups (the control group, the TGF-(31 group, and the TGF-β1+hANP group), and used in the following experiment.
To the culture medium for the TGF-β1+hANP group, the hANP solution was added so that the final concentration of hANP would be 1 μM. For the control group and the TGF-β1 group, the same amount of physiological saline was added to the culture medium. Two hours later, a wound was created at the center of each well with the use of a 200 μL-pipette tip. Immediately after the wound creation, a photograph of each well was taken under a microscope (FIG. 7A). To the TGF-β+hANP group and the TGF-β1 group, TGF-β1 was added so that the final concentration would be 1 ng/mL. After 24-hour culture, a photograph of the same part was taken again to calculate the average ratio of the wounded area width difference between immediately after the wound creation and after 24-hour culture (migration ratio: % wounded area filled) by the following formula.
Migration ratio (%)=(initial wound width−wound width after 24-hour culture)/(initial wound width)×100

HUVEC = experiment: VE-cadherin expression and intercellular adhesion of confluent HUVEC with VEGF; format: cell-based, human; conditions: VEGF+hANP
Procedure: Normal human umbilical cord vein endothelial cells (HUVEC) were purchased from Takara Bio, Inc. Medium preparation and subculture were performed according to the package insert. Nuclear staining was performed using TOPRO3 (purchased from Invitrogen), and immunostaining of VE-cadherin was performed using anti-VE-cadherin antibody (purchased from BD Biosciences). p After culturing the HUVEC to confluent and replacing the medium with a serum free medium, nuclear staining and immunostaining using anti-VE-cadherin antibody were performed in the presence or absence of VEGF and hANP to observe the expression of VE-cadherin.

A549 cells [2] = experiment: Mouse tail vein injection metastasis test, GFP-labeled A549 cells; format: in vivo; conditions: hANP 0.5 μg/kg/min by subcutaneous osmotic pump for 4 weeks, observed 8 weeks after injection, Balb/c (nu/nu) mice
Procedure: Six-week-old male Balb/c (nu/nu) mice were used (purchased from Japan SLC, Inc.).
The osmotic pumps used were MODEL2004 (for 28-day administration) made by ALZET (Cupertino, Calif.).
Mice into which an osmotic pump containing 0.9% physiological saline was subcutaneously implanted in the back were assigned to the control group. Similarly, mice into which an osmotic pump containing hANP prepared for administration at 0.5 μg/kg/min was subcutaneously implanted were assigned to the ANP group. Injection of a tumor cell suspension was performed on the day after the osmotic pump implantation.
As the tumor cells, A549 cell line labeled with GFP (Green Fluorescent Protein) was purchased from Wako Pure Chemical Industries, Ltd., and cultured in RPMI1640 (Life Technologies Corp.) containing 10% FCS under 5% CO2 at 37° C. The cells in a subconfluent state were treated with EDTA-trypsin, centrifuged, and then suspended in serum free DMEM so as to be 1×10^7 cells/mL. The A549 cell suspension (100 μL/body, 1×10^6 cells) was injected to the tail vein of the mice.

[3] = tested on: cancer cells (A549, H460, H520, H358 cells); experiment: Combined effect of hANP and cisplatin on apoptosis induction in cancer cells; format: cell-based; conditions: hANP 1 or 10 μM with cisplatin 1-30 μM, 48 hours
Procedure: As the cisplatin, CISPLATIN inj. “Maruko” (trade name, Nichi-Iko Pharmaceutical) was used.
Using a 96-well dish, the A549 cells were cultured at 1×10^4 cells/well. The next day, the culture medium was replaced with DMEM culture medium free from FBS. After 24-hours culture, the cells were divided into groups (control group, cisplatin single administration group, 1 μM hANP group, cisplatin+1 μM hANP group, 10 μM hANP group, and cisplatin+10 μM hANP group), and the following experiment was conducted.
To the culture medium, for the hANP addition groups, a hANP solution prepared so that the final concentration of hANP would be 1 or 10 μM was added, whereas for the control group and the cisplatin single administration group, the same amount of physiological saline was added. Further, for the cisplatin addition groups, a cisplatin solution prepared so that the final concentration of cisplatin would be 1, 5, 10, 20, or 30 μM was added (for the control group and the hANP single administration group, the same amount of physiological saline was added). […] 48 hours later, trypan blue staining was performed and the cell viability (number of living cells/total number of all cells) was determined with the use of an automatic cell counter Countess (registered trademark) (Invitrogen). […]

A549 cells [4] = experiment: Migration ability, Boyden chamber assay, A549 cells; format: cell-based; conditions: 1 μM hANP, TGF-β1 1 ng/mL, 20 hours
Procedure: as §1, with “1×10^5” for “4×10^5”, “TGF-β1” for “TGF-(31”
To the culture medium for the TGF-β+hANP group, the hANP solution was added so that the final concentration of hANP might be 1 μM. For the control group and the TGF-β1 group, the same amount of physiological saline was added to the culture medium. After 2 hours from the addition, the Boyden chamber assay was performed as follows.
DMEM culture medium free from FBS for the control group, the same DMEM culture medium containing TGF-β1 (final concentration: 1 ng/mL) for the TGF-β1 group, and the same DMEM culture medium containing hANP (final concentration: 1 μM) and TGF-β1 (final concentration: 1 ng/mL) for the TGF-β1+hANP group were separately added to each well of a 6-well dish in an amount of 1.5 mL. On the surface of each liquid, a cell culture insert (8.0 μm pore size, made by Becton, Dickinson and Company) was placed, and onto each cell culture insert, 1.5 mL of a cell suspension of A549 cells of each group in FBS-free DMEM (hANP at final concentration of 1 μM was added for the TGF-β1+hANP group) was added and cultured. […]

Question: Which “motility (migration ratio, % wounded area filled)” value (A549 cells [1]) does the source give for `CC[C@H](C)[C@@H]1NC(=O)[C@H](CCCNC(=N)N)NC(=O)[C@H](CC(=O)O)NC(=O)[C@H](CCSC)NC(=O)[C@H](CCCNC(=N)N)NC(=O)CNC(=O)CNC(=O)[C@H](Cc2ccccc2)NC(=O)[C@@H](NC(=O)[C@H](CO)NC(=O)[C@H](CO)NC(=O)[C@H](CCCNC(=N)N)NC(=O)[C@H](CCCNC(=N)N)NC(=O)[C@H](CC(C)C)NC(=O)[C@@H](N)CO)CSSC[C@@H](C(=O)N[C@@H](CC(N)=O)C(=O)N[C@@H](CO)C(=O)N[C@@H](Cc2ccccc2)C(=O)N[C@@H](CCCNC(=N)N)C(=O)N[C@@H](Cc2ccc(O)cc2)C(=O)O)NC(=O)CNC(=O)[C@H](CC(C)C)NC(=O)CNC(=O)[C@H](CO)NC(=O)[C@H](CCC(N)=O)NC(=O)[C@H](C)NC(=O)CNC1=O` [hANP, carperitide] here?
Answer: significantly suppressed

Question: What about the “decrease of VE-cadherin expression and intercellular gaps caused by VEGF” value (HUVEC) of the same molecule?
Answer: this phenomenon was suppressed

Question: And the “lung metastasis (number of nodules)” value (A549 cells [2])?
Answer: significantly suppressed

Question: And the “apoptosis-inducing activity in combination with cisplatin” value [3]?
Answer: enhanced

Question: And the “migration ability (cells on lower surface of insert)” value (A549 cells [4])?
Answer: significantly suppressed

— patent publication US20140072557A1, “MEDICINAL AGENT FOR SUPPRESSING MALIGNANT TUMOR METASTASIS” (priority 2011, published 2014)
